Test results reported in US8110660B2, “Soluble ENPP4 protein” (Ono Pharmaceutical Co., Ltd., priority 2004, dated 2012).
One block for each compound: values may come before it.

What was measured:
Assay type in all cases: biochemical
[1] = target: T1, purified soluble type ENPP4 protein (Homo sapiens, UniProt Q9Y6X5); assay: Identification of nucleic acids to be ENPP4 substrate (HPLC); settings: for degradation amount / activity of degrading by ENPP4 / degradation by ENPP4 (NMP detected as reacted product): 200 μM nucleic acid, HPLC, FIG. 15; for degradation by ENPP4 (NMP detected as reacted product): pH 8.5, 37° C., 2, 5 or 8 hours
T1 construct: signal peptide; base No. 1 to 45, mature protein; base No. 46 to 1212; made in house; host or cells: HEK293T (secreted into culture supernatant, His-Trap purified)
T1 sequence (Q9Y6X5 16-404): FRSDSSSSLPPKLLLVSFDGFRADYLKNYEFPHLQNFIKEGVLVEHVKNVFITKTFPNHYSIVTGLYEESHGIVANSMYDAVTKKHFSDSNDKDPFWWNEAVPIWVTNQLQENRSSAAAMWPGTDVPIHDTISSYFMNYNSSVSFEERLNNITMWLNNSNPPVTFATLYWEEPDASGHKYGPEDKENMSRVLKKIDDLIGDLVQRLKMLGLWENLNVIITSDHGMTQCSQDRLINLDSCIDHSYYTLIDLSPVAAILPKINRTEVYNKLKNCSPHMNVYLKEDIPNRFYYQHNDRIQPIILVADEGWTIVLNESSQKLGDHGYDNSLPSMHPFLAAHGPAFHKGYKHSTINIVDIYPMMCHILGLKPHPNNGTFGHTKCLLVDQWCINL
Experimental: (§1) 0.5 μg of the purified soluble type ENPP4 protein was mixed in 500 μL of assay buffer (20 mM HEPES, 140 mM NaCl, 5 mM KCl, 10 mM Glucose, pH 8.5), and then, each kind of nucleic acids were added thereto so that its final concentration became 200 μM. The mixture was kept at 37° C. for 2, 5, or 8 hours. Then, by using HPLC (Unison-UKC18 reversed-phase column 30×2 mm, manufactured by Imtakt Co., Ltd.) (mobile phase: 50 mM sodium phosphate buffer (pH 6.4), 5 mM tetrabutylammonium hydrogen sulfate, 1 mM EDTA, 2-30% acetonitrile), the nucleic acids were separated from the reacted solution, and the substrates and the reacted products were quantitatively determined.

[2] = target: T2, purified soluble type ENPP6 protein (Homo sapiens, UniProt Q6UWR7); assay: Inhibition of light-emitting substrate degradation by soluble type ENPP6 protein
T2 construct: signal peptide; base No. 1 to 66, mature protein; base No. 67 to 1269; made in house; host or cells: HEK293T (secreted into culture supernatant, His-Trap purified)
T2 sequence (Q6UWR7 23-423): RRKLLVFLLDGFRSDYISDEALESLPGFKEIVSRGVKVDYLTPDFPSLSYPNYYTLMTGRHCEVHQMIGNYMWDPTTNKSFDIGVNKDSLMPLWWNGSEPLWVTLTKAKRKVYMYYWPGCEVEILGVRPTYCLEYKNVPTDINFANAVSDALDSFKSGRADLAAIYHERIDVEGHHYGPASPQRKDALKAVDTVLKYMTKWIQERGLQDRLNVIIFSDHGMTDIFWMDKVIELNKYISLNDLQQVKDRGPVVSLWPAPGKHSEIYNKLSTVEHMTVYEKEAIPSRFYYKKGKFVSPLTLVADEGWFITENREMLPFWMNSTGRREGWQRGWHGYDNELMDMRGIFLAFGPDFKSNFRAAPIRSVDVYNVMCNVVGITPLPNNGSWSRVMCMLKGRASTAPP
Experimental: 0.2 μg of the purified soluble type ENPP6 protein was mixed in 90 μL of assay buffer (20 mM HEPES, 140 mM NaCl, 5 mM KCl, 1 mM CaCl2, 1 mM MgCl2, 10 mM Glucose, pH 9.6), and 10 μL of each of 10 mM pNP-PP and a solution of a test compound was added thereto, and was kept at 37° C. for 2 hours. Then, absorption of light of 405 nm was measured and thereby, the amount of p-nitorphenol was quantitatively determined and thereby the inhibitory activity of […] degradation of each of the test compounds was examined. By using Neurotransmitter Library Plate 10 (Purinergic & adenosines) ver. 2, Bioactive Lipid Library ver. 3 (manufactured by BIOMOL Inc.), and various lysophospholipids as test compounds, the inhibitory activity of pNP-PP degradation was measured and, 80% or more of the inhibitory activity was detected in Glycerophosphorilcholine, and 70% or more of the inhibitory activity in Lysophosphatidylcholine, 1-Methyladenosine, 3-Deazaadenosine, ATP, and ADP(1 mM), and 60% or more of the inhibitory activity in N6-Methyladenosine, N6-Methyl-2′-deoxy-adenosine, S-Adenosyl-L-Homocysteine, and 2-MethylthioATP.

[3] = target: T3, purified soluble type ENPP5 protein (Homo sapiens, UniProt Q9UJA9); assay: Identification of nucleic acids to be ENPP5 substrate (HPLC); settings: 200 μM nucleic acid, pH 7.5, 37° C., 2, 5 or 8 hours, FIG. 15
T3 construct: signal peptide; base No. 1 to 66, mature protein; base No. 67 to 1287; made in house; host or cells: HEK293T (secreted into culture supernatant, His-Trap purified)
T3 sequence (Q9UJA9 23-429): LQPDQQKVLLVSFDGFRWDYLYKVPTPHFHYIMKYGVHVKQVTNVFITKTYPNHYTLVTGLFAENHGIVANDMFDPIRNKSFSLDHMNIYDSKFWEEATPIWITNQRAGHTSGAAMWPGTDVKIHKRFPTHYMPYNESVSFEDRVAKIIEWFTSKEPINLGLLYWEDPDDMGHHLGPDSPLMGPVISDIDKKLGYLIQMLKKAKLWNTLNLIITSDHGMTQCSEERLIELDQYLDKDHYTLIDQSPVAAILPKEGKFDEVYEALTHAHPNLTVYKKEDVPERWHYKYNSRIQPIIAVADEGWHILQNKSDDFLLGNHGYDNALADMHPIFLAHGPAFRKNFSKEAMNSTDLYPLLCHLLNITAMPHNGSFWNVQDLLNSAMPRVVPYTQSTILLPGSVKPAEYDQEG
Experimental: as §1, with “ENPP5” for “ENPP4”, “7.5),” for “8.5),”, “performed” for “kept”

[4] = target: T1, purified soluble type ENPP4 protein; assay: Inhibition of pNP-TMP or pNP-PP degradation by soluble type ENPP4 protein
Experimental: 0.2 μg of the purified soluble type ENPP4 protein was mixed in 90 μL of assay buffer (20 mM HEPES, 140 mM NaCl, 5 mM KCl, 10 mM Glucose, pH 8.5), and 10 μL of each of 10 mM pNP-TMP or pNP-PP and a solution of a test compound was added thereto, and then was kept at 37° C. for 2 hours. Then, absorption of light of 405 nm was measured and thereby, the amount of p-nitorphenol was quantitatively determined and thereby the inhibitory activity of pNP-TMP or pNP-PP degradation of each test compound was examined. By using pNP-TMP and Neurotransmitter Library Plate 10 (Purinergic & adenosines) ver. […] Moreover, 60% or more of the inhibitory activity was detected in CDP-Choline, and 40% or more of the inhibitory activity was detected in P1P3-DiAdenosine-triphosphate (AP(3)A), P1P6-DiAdenosine-hexaphosphate (AP(6)A).

[5] = target: T3, purified soluble type ENPP5 protein; assay: Inhibition of light-emitting substrate degradation by soluble type ENPP5 protein
Experimental: 0.2 μg of the purified soluble type ENPP5 protein was mixed in 90 μL of assay buffer (20 mM HEPES, 140 mM NaCl, 5 mM KCl, 10 mM Glucose, pH 7.5), and 10 μL of each of 10 mM pNP-PP and a solution of a test compound was added thereto, and then was kept at 37° C. for 2 hours. Then, absorption of light of 405 nm was measured and thereby, the amount of p-nitorphenol was quantitatively determined and thereby the inhibitory activity of […] pNP-PP degradation of each of the test compound was examined. By using Neurotransmitter Library Plate 10 (Purinergic & adenosines) ver. 2 (manufactured by BIOMOL Inc.) as test compounds, and the inhibitory activity of pNP-TMP degradation of each of 1 mM compounds was measured and, 70% or more of the inhibitory activity was detected in 2-Methyl-ATP, and 80% or more of the inhibitory activity was detected in ADP, UDP, and GDP.

degradation by ENPP4 (NMP detected as reacted product) [1]: degraded by ENPP4
Compound: Nc1ncnc2c1ncn2[C@@H]1O[C@H](COP(=O)(O)OP(=O)(O)OP(=O)(O)OP(=O)(O)OC[C@H]2O[C@@H](n3cnc4c(N)ncnc43)[C@H](O)[C@@H]2O)[C@@H](O)[C@H]1O [AP(4)A, P1P4-DiAdenosine-tetraphosphate]
degradation amount / activity of degrading by ENPP4 [1]: lower than the activity of degrading Ap(3)A

Compound: Lysophosphatidylcholine
concentration dependence of inhibitory activity of pNP-TMP degradation by ENPP6 ([2]; FIG. 14): inhibitory activity of pNP-TMP degradation depending on concentration of LPC was detected

degradation by ENPP4 (NMP detected as reacted product) [1]: degraded by ENPP4
Compound: Nc1ccn([C@@H]2O[C@H](COP(=O)(O)OP(=O)(O)OP(=O)(O)O)[C@@H](O)[C@H]2O)c(=O)n1 [CTP]

degradation by ENPP4 (NMP detected as reacted product) [1]: degraded by ENPP4
Compound: Nc1ncnc2c1ncn2[C@@H]1O[C@H](COP(=O)(O)OP(=O)(O)OP(=O)(O)OC[C@H]2O[C@@H](n3cnc4c(N)ncnc43)[C@H](O)[C@@H]2O)[C@@H](O)[C@H]1O [AP(3)A, P1P3-DiAdenosine-triphosphate]

degradation by ENPP4 (NMP detected as reacted product) [1]: degraded by ENPP4
Compound: O=c1ccn([C@@H]2O[C@H](COP(=O)(O)OP(=O)(O)OP(=O)(O)O)[C@@H](O)[C@H]2O)c(=O)[nH]1 [UTP]

Compound: Nc1ncnc2c1ncn2[C@@H]1O[C@H](COP(=O)(O)OP(=O)(O)O)[C@@H](O)[C@H]1O [ADP]
degradation by ENPP4 (NMP detected as reacted product) [1]: degraded by ENPP4
degradation by ENPP5 (NMP detected as reacted product) [3]: degraded by ENPP5

Compound: diadenosine 5-phosphate [Ap(5)A]
degradation by ENPP4 (NMP detected as reacted product) [1]: degraded by ENPP4

inhibitory activity of pNP-PP degradation ([2]; pH 9.6, 37° C., 2 hours, 1 mM printed for ADP): ≥ 80%
Compound: C[N+](C)(C)CCOP(=O)([O-])OC[C@H](O)CO [Glycerophosphorilcholine]

degradation by ENPP4 (NMP detected as reacted product) [1]: degraded by ENPP4
Compound: Nc1ccn([C@@H]2O[C@H](COP(=O)(O)OP(=O)(O)O)[C@@H](O)[C@H]2O)c(=O)n1 [CDP]

degradation amount / activity of degrading by ENPP4 [1]: small
degradation by ENPP4 (NMP detected as reacted product) [1]: degraded by ENPP4
inhibitory activity against ENPP4 (concluded from small degradation and high inhibition) ([1]; conclusion from Examples 16 and 19): has an inhibitory activity against ENPP4
Compound: Nc1ncnc2c1ncn2[C@@H]1O[C@H](COP(=O)(O)OP(=O)(O)OP(=O)(O)O)[C@@H](O)[C@H]1O [ATP]
concentration dependence of inhibitory activity against ENPP4 ([4]; FIG. 12, pNP-TMP degradation): inhibitory activity depending on concentration of ATP was detected
concentration dependence of inhibitory activity of pNP-PC degradation by ENPP5 ([5]; FIG. 13): inhibitory activity of pNP-PC degradation depending on concentration of ATP was detected

inhibitory activity of pNP-TMP degradation ([5]; 1 mM compound, pH 7.5, 37° C., 2 hours): ≥ 70%
Compound: Cc1nc(N)c2ncn(C3OC(COP(=O)(O)OP(=O)(O)OP(=O)(O)O)C(O)C3O)c2n1 (centres unmarked) [2-Methyl-ATP]

Compound: C[N+](C)(C)CCOP(=O)(O)OP(=O)([O-])OC[C@H]1O[C@@H](n2ccc(N)nc2=O)[C@H](O)[C@@H]1O [CDP-Choline]
inhibition at 1000 µM ([4]; 1 mM compound, pH 8.5, 37° C., 2 hours, FIG. 11 (pNP-TMP), read-out: inhibitory activity of pNP-TMP or pNP-PP degradation): ≥ 60%
degradation by ENPP4 (NMP detected as reacted product) [1]: degraded by ENPP4
degradation by ENPP5 (NMP detected as reacted product) [3]: degraded by ENPP5

degradation by ENPP4 (NMP detected as reacted product) [1]: degraded by ENPP4
Compound: Nc1ncnc2c1ncn2[C@@H]1O[C@H](COP(=O)(O)OP(=O)(O)OP(=O)(O)OP(=O)(O)OP(=O)(O)OP(=O)(O)OC[C@H]2O[C@@H](n3cnc4c(N)ncnc43)[C@H](O)[C@@H]2O)[C@@H](O)[C@H]1O [AP(6)A, P1P6-DiAdenosine-hexaphosphate]

degradation by ENPP4 (NMP detected as reacted product) [1]: degraded by ENPP4
degradation by ENPP5 (NMP detected as reacted product) [3]: degraded by ENPP5
Compound: O=c1ccn([C@@H]2O[C@H](COP(=O)(O)OP(=O)(O)O)[C@@H](O)[C@H]2O)c(=O)[nH]1 [UDP]
